Reference: patent US20230140216A1, “COMBINATION THERAPY FOR TREATING MPS1” (GAIN THERAPEUTICS SA, priority 2020, published 2023)

Biological target: T1, Recombinant human α-L-iduronidase protein (Homo sapiens, UniProt P35475)
T1 construct: purchased R&D
T1 sequence (P35475 28-653): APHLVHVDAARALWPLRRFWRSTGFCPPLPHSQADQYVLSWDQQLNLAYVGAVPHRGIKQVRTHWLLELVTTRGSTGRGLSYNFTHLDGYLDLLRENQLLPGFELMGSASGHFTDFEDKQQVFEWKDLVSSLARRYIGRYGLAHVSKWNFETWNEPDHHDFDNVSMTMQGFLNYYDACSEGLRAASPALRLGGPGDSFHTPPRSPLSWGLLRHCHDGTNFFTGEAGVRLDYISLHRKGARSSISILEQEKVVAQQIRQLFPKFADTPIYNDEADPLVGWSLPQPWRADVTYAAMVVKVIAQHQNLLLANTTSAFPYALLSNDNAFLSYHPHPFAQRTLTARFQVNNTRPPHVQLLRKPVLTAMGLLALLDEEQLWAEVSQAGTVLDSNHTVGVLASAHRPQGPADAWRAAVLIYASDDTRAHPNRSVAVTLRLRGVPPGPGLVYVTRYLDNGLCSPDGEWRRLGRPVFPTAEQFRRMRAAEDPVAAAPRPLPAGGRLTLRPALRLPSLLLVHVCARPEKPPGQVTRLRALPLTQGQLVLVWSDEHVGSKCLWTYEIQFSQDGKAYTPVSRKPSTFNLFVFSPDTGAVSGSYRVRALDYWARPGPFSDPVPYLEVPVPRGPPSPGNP
Assay: Differential scanning fluorimetry (DSF) thermal stabilization;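 also: Classes count stabilization of α-L-iduronidase despite the GALC label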
Format: binding
Conditions: ΔTm class
Description: The capacity of Compounds of the Disclosure to stabilize α-L-iduronidase was assessed by differential scanning fluorimetry technique. The thermal denaturation of purified human native enzyme was monitored in the presence of the extrinsic fluorescent probe SYPRO Orange (Sigma-Aldrich, St. Louis, MO). The tested compounds were dissolved in 100% DMSO and diluted into the protein buffer to achieve final concentrations of 1% DMSO.
Recombinant human α-L-iduronidase protein (purchased from R&D) 12.5 µL of 1.5 µM in 100 mM Hepes 20 mM MgCl2 pH 7 (protein final concentration 0.75 µM) with Sypro Orange 10X and 12.5 µl of the different compound solutions were dispensed into 96-well PCR-plates. The intensity of SYPRO Orange fluorescence after a systematic increase of temperature was monitored in the Roche LightCycler® 480 II device (Roche Diagnostics).
The capacity to stabilize α-L-iduronidase is denoted as follows: • ΔTm GALC > 1 is shown as A; • ΔTm GALC between 0.5 and 1 is shown as B; • ΔTm GALC between 0.1 and 0.5 is shown as C; and • ΔTm GALC less than 0.1 is shown as D.

[1] = commercially available Examples 8-37

| SMILES | DSF Activity range (synthetized Examples 38-94) | also measured |
| --- | --- | --- |
| CCN(CC(=O)Nc1ccccc1)Cc1nc2ccccc2c(=O)[nH]1 [Example 19, 2-(ethyl((4-oxo-3,4-dihydroquinazolin-2-yl)methyl)amino)-N-phenylacetamide] |  | DSF Activity range [1]: C (ΔTm GALC between 0.1 and 0.5 is shown as C) |
| Cc1csc(N(C)C(=O)CN(C)Cc2nc3cc(F)ccc3c(=O)[nH]2)n1 [Example 68] | C (ΔTm GALC between 0.1 and 0.5 is shown as C) |  |
| Cc1ccc2nc(CN(CC(=O)N(C)c3ccccc3Cl)C3CC3)[nH]c(=O)c2c1 [Example 78, 2-(N-cyclopropyl-N-((3,4-dihydro-6-methyl-4-oxoquinazolin-2-yl)methyl)amino)-N-(2-chlorophenyl)-N-methylacetamide] | D (ΔTm GALC less than 0.1 is shown as D) |  |
| CCN(CC(=O)N(C)c1ccccc1Cl)Cc1nc2ccc(C)cc2c(=O)[nH]1 [Example 79] | C (ΔTm GALC between 0.1 and 0.5 is shown as C) |  |
| CCN(CC(=O)Nc1cccc(OC)c1)Cc1nc2ccsc2c(=O)[nH]1 [Example 10, 2-(ethyl((4-oxo-3,4-dihydrothieno[3,2-d]pyrimidin-2-yl)methyl)amino)-N-(3-methoxyphenyl)acetamide] |  | DSF Activity range [1]: C (ΔTm GALC between 0.1 and 0.5 is shown as C) |
| Cc1cccc(-n2ncc3c(O)nc(CN(C)CC(=O)N(C)c4ccccc4Cl)nc32)c1 [Example 3, N-(2-chlorophenyl)-2-(((4-hydroxy-1-m-tolyl-1H-pyrazolo[3,4-d]pyrimidin-6-yl)methyl)(methyl)amino)-N-methylacetamide] |  | DSF Activity range (synthetized Examples 1-7): C (ΔTm GALC between 0.1 and 0.5 is shown as C) |
| Cc1ccccc1-n1ncc2c(O)nc(CN(C)CC(=O)N(C)c3ccccc3Cl)nc21 [Example 2, N-(2-chlorophenyl)-2-(((4-hydroxy-1-o-tolyl-1H-pyrazolo[3,4-d]pyrimidin-6-yl)methyl)(methyl)amino)-N-methylacetamide] |  | DSF Activity range (synthetized Examples 1-7): C (ΔTm GALC between 0.1 and 0.5 is shown as C) |
| Cc1ccc2c(=O)[nH]c(CN(C)CC(=O)N(C)c3ccc(Cl)c(Cl)c3)nc2c1 [Example 88, 2-(N-((3,4-dihydro-7-methyl-4-oxoquinazolin-2-yl)methyl)-N-methylamino)-N-(3,4-dichlorophenyl)-N-methylacetamide] | B (ΔTm GALC between 0.5 and 1 is shown as B) |  |
| CCN(CC(=O)N(C)c1ccccc1Cl)Cc1nc2ccc(F)cc2c(=O)[nH]1 [Example 60] | B (ΔTm GALC between 0.5 and 1 is shown as B) |  |
| CCN(CC(=O)N(C)c1ccccc1Cl)Cc1nc2cc(C)sc2c(=O)[nH]1 [Example 46] | B (ΔTm GALC between 0.5 and 1 is shown as B) |  |
| Cc1csc2c(=O)[nH]c(CN(C)CC(=O)N3Cc4ccccc4C3)nc12 [Example 38] | B (ΔTm GALC between 0.5 and 1 is shown as B) |  |
| Cc1cc2nc(CN(C)CC(=O)N3Cc4ccccc4C3)[nH]c(=O)c2s1 [Example 53] | B (ΔTm GALC between 0.5 and 1 is shown as B) |  |
| CN(CC(=O)N(C)c1ccccc1)Cc1nc2ccccc2c(=O)[nH]1 [Example 27, N-methyl-2-(methyl((4-oxo-3,4-dihydroquinazolin-2-yl)methyl)amino)-N-phenylacetamide] |  | DSF Activity range [1]: B (ΔTm GALC between 0.5 and 1 is shown as B) |
| O=C(Nc1ccccc1)C1CCCN1Cc1nc2ccccc2c(=O)[nH]1 (stereo not drawn) [Example 24, 1-((4-oxo-3,4-dihydroquinazolin-2-yl)methyl)-N-phenylpyrrolidine-2-carboxamide] |  | DSF Activity range [1]: B (ΔTm GALC between 0.5 and 1 is shown as B) |
| Cc1ccc(-n2ncc3c(O)nc(CN(C)CC(=O)N(C)c4ccccc4Cl)nc32)cc1 [Example 4, N-(2-chlorophenyl)-2-(((4-hydroxy-1-p-tolyl-1H-pyrazolo[3,4-d]pyrimidin-6-yl)methyl)(methyl)amino)-N-methylacetamide] |  | DSF Activity range (synthetized Examples 1-7): B (ΔTm GALC between 0.5 and 1 is shown as B) |
| Cc1csc(N(C)C(=O)CN(C)Cc2nc3c(C)csc3c(=O)[nH]2)n1 [Example 48, N-methyl-2-(methyl((7-methyl-4-oxo-3,4-dihydrothieno[3,2-d]pyrimidin-2-yl)methyl)amino)-N-(4-methylthiazol-2-yl)acetamide] | C (ΔTm GALC between 0.1 and 0.5 is shown as C) |  |
| CN(CC(=O)N(C)C)Cc1nc2c(cnn2C)c(=O)[nH]1 [Example 36, N,N-dimethyl-2-(methyl((1-methyl-4-oxo-4,5-dihydro-1H-pyrazolo[3,4-d]pyrimidin-6-yl)methyl)amino)acetamide] |  | DSF Activity range [1]: B (ΔTm GALC between 0.5 and 1 is shown as B) |

| SMILES | DSF Activity range (synthetized Examples 38-94) | also measured |
| --- | --- | --- |
| Cc1ccc2c(=O)[nH]c(CN(C)CC(=O)N(C)c3ccccc3Cl)nc2c1 [Example 70, 2-(N-((3,4-dihydro-7-methyl-4-oxoquinazolin-2-yl)methyl)-N-methylamino)-N-(2-chlorophenyl)-N-methylacetamide] | B (ΔTm GALC between 0.5 and 1 is shown as B) |  |
| Cc1ccc2nc(CN(C)CC(=O)N(C)c3cccc(F)c3)[nH]c(=O)c2c1 [Example 82] | B (ΔTm GALC between 0.5 and 1 is shown as B) |  |
| Cc1ccc2nc(CN(C)CC(=O)N(C)c3ccccc3Cl)[nH]c(=O)c2c1 [Example 66] | B (ΔTm GALC between 0.5 and 1 is shown as B) |  |
| Cc1cc2nc(CN(C)CC(=O)N(C)c3cccc(F)c3)[nH]c(=O)c2s1 [Example 51] | C (ΔTm GALC between 0.1 and 0.5 is shown as C) |  |
| Cc1csc2c(=O)[nH]c(CN(C)CC(=O)N(C)c3ccccc3Cl)nc12 [Example 41] | C (ΔTm GALC between 0.1 and 0.5 is shown as C) |  |
| Cc1cc2nc(CN(C)CC(=O)N(C)c3ccccc3Cl)[nH]c(=O)c2s1 [Example 45] | B (ΔTm GALC between 0.5 and 1 is shown as B) |  |
| CN(CC(=O)N1Cc2ccccc2C1)Cc1nc2cc(F)ccc2c(=O)[nH]1 [Example 71, 7-fluoro-2-(((2-(isoindolin-2-yl)-2-oxoethyl)(methyl)amino)methyl)quinazolin-4(3H)-one] | A (ΔTm GALC > 1 is shown as A) |  |
| CCN(CC(=O)N(C)c1c(Cl)cccc1Cl)Cc1nc2cc(F)ccc2c(=O)[nH]1 [Example 73, 2-(N-ethyl-N-((7-fluoro-3,4-dihydro-4-oxoquinazolin-2-yl)methyl)amino)-N-(2,6-dichlorophenyl)-N-methylacetamide] | C (ΔTm GALC between 0.1 and 0.5 is shown as C) |  |
| CN(CC(=O)N1CCc2ccccc21)Cc1nc2ccc(F)cc2c(=O)[nH]1 [Example 57, 6-fluoro-2-(((2-(indolin-1-yl)-2-oxoethyl)(methyl)amino)methyl)quinazolin-4(3H)-one] | B (ΔTm GALC between 0.5 and 1 is shown as B) |  |
| CN(CC(=O)N1Cc2ccccc2C1)Cc1nc2c(cnn2C)c(=O)[nH]1 [Example 90] | C (ΔTm GALC between 0.1 and 0.5 is shown as C) |  |
| CN(CC(=O)N(C)c1ccccc1Cl)Cc1nc2ccc(F)cc2c(=O)[nH]1 [Example 59] | B (ΔTm GALC between 0.5 and 1 is shown as B) |  |
| CCN(CC(=O)N(C)c1ccccc1Cl)Cc1nc2c(C)csc2c(=O)[nH]1 [Example 42] | C (ΔTm GALC between 0.1 and 0.5 is shown as C) |  |
| CN(CC(=O)Nc1cccc(F)c1)Cc1nc2ccsc2c(=O)[nH]1 [Example 9, N-(3-fluorophenyl)-2-(methyl((4-oxo-3,4-dihydrothieno[3,2-d]pyrimidin-2-yl)methyl)amino)acetamide] |  | DSF Activity range [1]: A (ΔTm GALC > 1 is shown as A) |
| COc1ccccc1-n1ncc2c(O)nc(CN(C)CC(=O)N(C)c3ccccc3Cl)nc21 [Example 5, N-(2-chlorophenyl)-2-(((4-hydroxy-1-(2-methoxyphenyl)-1H-pyrazolo[3,4-d]pyrimidin-6-yl)methyl)(methyl)amino)-N-methylacetamide] |  | DSF Activity range (synthetized Examples 1-7): D (ΔTm GALC less than 0.1 is shown as D) |
| CN(CC(=O)Nc1cccc2ncccc12)Cc1nc2ccccc2c(=O)[nH]1 [Example 21, 2-(methyl((4-oxo-3,4-dihydroquinazolin-2-yl)methyl)amino)-N-(quinolin-5-yl)acetamide] |  | DSF Activity range [1]: B (ΔTm GALC between 0.5 and 1 is shown as B) |
| Cc1cccc(C)c1NC(=O)CN(C)Cc1nc2ccccc2c(=O)[nH]1 [Example 23, N-(2,6-dimethylphenyl)-2-(methyl((4-oxo-3,4-dihydroquinazolin-2-yl)methyl)amino)acetamide] |  | DSF Activity range [1]: B (ΔTm GALC between 0.5 and 1 is shown as B) |
